Test results: patent publication US20210254272A1, “TEXTILES HAVING ANTIMICROBIAL PROPERTIES” (Livinguard AG, priority 2015, published 2021)

Test system: E. coli (ATCC 25922)
Test: AATCC Test Method 100-2012 antibacterial activity of the treated textile, after 25 washes and 12 abrasion cycles, contact time 60 minutes
Assay type: cell-based
Details: for Log reduction of antimicrobial performance: 1% o.w.f; for Log reduction of antimicrobial performance in 100 GSM Polyester fabric / Log reduction of antimicrobial performance in 100 GSM cotton fabric / Log reduction of antimicrobial performance in 300 GSM Polyester fabric / Log reduction of antimicrobial performance in 300 GSM cotton fabric / Performance Test-Log reduction of antimicrobial performance: 2 min; for Performance Test-Log reduction of antimicrobial performance: pad process, single agent 5 gm/lit
Description: The antibacterial activity of the textile was tested in accordance with AATCC Test Method 100-2012. Prior to the test, the fabric was cut into coupons of 2×4 inches and washed separately 25 times, and exposed to 12 abrasion cycles, as per US EPA protocol 90072PA4 (described further below). The tests were made against E. coli (ATCC 25922). Contact time was 60 minutes, after inoculating with 10^8 CFU per coupon.

[1] = exhaust 80° C., 60 min, curing 180° C., dosage 0.1% o.w.f
[2] = exhaust 80° C., 60 min, curing 180° C., dosage 0.2% o.w.f
[3] = exhaust 80° C., 60 min, curing 180° C., dosage 0.5% o.w.f
[4] = exhaust 80° C., 60 min, curing 180° C., dosage 0.8% o.w.f
[5] = exhaust 80° C., 60 min, curing 180° C., dosage 1.0% o.w.f

CCCCCCCCCCCCCCCCCC[N+](C)(C)CCC[Si](OC)(OC)OC [Organosilane, dimethyloctadecyl[3-(trimethoxysilyl)propyl] ammonium chloride]
Log reduction of antimicrobial performance of each active ingredient (exhaust 60° C., solution dosage 1% o.w.f, process time 60 min): 1.5 Log | Log reduction of antimicrobial performance of each active ingredient (exhaust 60° C., solution dosage 1% o.w.f, process time 90 min): 1.7 Log | Log reduction of antimicrobial performance of each active ingredient (exhaust 60° C., solution dosage 1% o.w.f, process time 120 min): 1.8 Log | Log reduction of antimicrobial performance of each active ingredient (exhaust 60° C., solution dosage 1% o.w.f, process time 180 min): 1.8 Log | Log reduction of antimicrobial performance of each active ingredient (exhaust 60° C., solution dosage 1% o.w.f, process time 240 min): 1.73 Log | Log reduction of antimicrobial performance (exhaust 80° C., 60 min, curing 170° C., curing dwell time 0.5 min): 0.3 Log | Log reduction of antimicrobial performance (exhaust 80° C., 60 min, curing 170° C., curing dwell time 1.0 min): 0.5 Log | Log reduction of antimicrobial performance (exhaust 80° C., 60 min, curing 170° C., curing dwell time 1.5 min): 0.6 Log | Log reduction of antimicrobial performance (exhaust 80° C., 60 min, curing 170° C., curing dwell time 2.0 min): 1.2 Log | Log reduction of antimicrobial performance (exhaust 80° C., 60 min, curing 170° C., curing dwell time 2.5 min): 1.2 Log | Log reduction of antimicrobial performance (exhaust 80° C., 60 min, curing 170° C., curing dwell time 3.0 min): 0.75 Log | Log reduction of antimicrobial performance (exhaust 80° C., 60 min, curing 180° C., curing dwell time 0.5 min): 1.5 Log | Log reduction of antimicrobial performance (exhaust 80° C., 60 min, curing 180° C., curing dwell time 1.0 min): 1.7 Log | Log reduction of antimicrobial performance (exhaust 80° C., 60 min, curing 180° C., curing dwell time 1.5 min): 1.8 Log | Log reduction of antimicrobial performance (exhaust 80° C., 60 min, curing 180° C., curing dwell time 2.0 min): 3.9 Log | Log reduction of antimicrobial performance (exhaust 80° C., 60 min, curing 180° C., curing dwell time 2.5 min): 3.8 Log | Log reduction of antimicrobial performance (exhaust 80° C., 60 min, curing 180° C., curing dwell time 3.0 min): 3.7 Log | Log reduction of antimicrobial performance (exhaust 80° C., 60 min, curing 190° C., curing dwell time 0.5 min): 0.6 Log | Log reduction of antimicrobial performance (exhaust 80° C., 60 min, curing 190° C., curing dwell time 1.0 min): 1.1 Log | Log reduction of antimicrobial performance (exhaust 80° C., 60 min, curing 190° C., curing dwell time 1.5 min): 1.5 Log | Log reduction of antimicrobial performance (exhaust 80° C., 60 min, curing 190° C., curing dwell time 2.0 min): 2.55 Log | Log reduction of antimicrobial performance (exhaust 80° C., 60 min, curing 190° C., curing dwell time 2.5 min): 2.46 Log | Log reduction of antimicrobial performance (exhaust 80° C., 60 min, curing 190° C., curing dwell time 3.0 min): 1.2 Log | Log reduction of antimicrobial performance (exhaust 80° C., 60 min, curing temperature 100 ° C.): 0.17 Log | Log reduction of antimicrobial performance (exhaust 80° C., 60 min, curing temperature 120 ° C.): 0.56 Log | Log reduction of antimicrobial performance (exhaust 80° C., 60 min, curing temperature 140 ° C.): 0.97 Log | Log reduction of antimicrobial performance (exhaust 80° C., 60 min, curing temperature 160 ° C.): 1.11 Log | Log reduction of antimicrobial performance (exhaust 80° C., 60 min, curing temperature 165 ° C.): 1.16 Log | Log reduction of antimicrobial performance (exhaust 80° C., 60 min, curing temperature 170 ° C.): 1.26 Log | Log reduction of antimicrobial performance (exhaust 80° C., 60 min, curing temperature 175 ° C.): 2.16 Log | Log reduction of antimicrobial performance (exhaust 80° C., 60 min, curing temperature 180 ° C.): 2.56 Log | Log reduction of antimicrobial performance (exhaust 80° C., 60 min, curing temperature 185 ° C.): 2.59 Log | Log reduction of antimicrobial performance (exhaust 80° C., 60 min, curing temperature 190 ° C.): 2.61 Log | Log reduction of antimicrobial performance (exhaust 80° C., 60 min, curing temperature 195 ° C.): 2.63 Log | Log reduction of antimicrobial performance in 100 GSM Polyester fabric [1]: 0.73 Log | Log reduction of antimicrobial performance in 100 GSM cotton fabric [1]: 0.81 Log | Log reduction of antimicrobial performance in 300 GSM Polyester fabric [1]: 0.75 Log | Log reduction of antimicrobial performance in 300 GSM cotton fabric [1]: 0.82 Log | Log reduction of antimicrobial performance in 100 GSM Polyester fabric [2]: 1.67 Log | Log reduction of antimicrobial performance in 100 GSM cotton fabric [2]: 1.67 Log | Log reduction of antimicrobial performance in 300 GSM Polyester fabric [2]: 1.65 Log | Log reduction of antimicrobial performance in 300 GSM cotton fabric [2]: 1.68 Log | Log reduction of antimicrobial performance in 100 GSM Polyester fabric [3]: 1.79 Log | Log reduction of antimicrobial performance in 100 GSM cotton fabric [3]: 1.83 Log | Log reduction of antimicrobial performance in 300 GSM Polyester fabric [3]: 1.80 Log | Log reduction of antimicrobial performance in 300 GSM cotton fabric [3]: 1.83 Log | Log reduction of antimicrobial performance in 100 GSM Polyester fabric [4]: 2.19 Log | Log reduction of antimicrobial performance in 100 GSM cotton fabric [4]: 2.17 Log | Log reduction of antimicrobial performance in 300 GSM Polyester fabric [4]: 2.20 Log | Log reduction of antimicrobial performance in 300 GSM cotton fabric [4]: 2.18 Log | Log reduction of antimicrobial performance in 100 GSM Polyester fabric [5]: 2.58 Log | Log reduction of antimicrobial performance in 100 GSM cotton fabric [5]: 2.56 Log | Log reduction of antimicrobial performance in 300 GSM Polyester fabric [5]: 2.58 Log | Log reduction of antimicrobial performance in 300 GSM cotton fabric [5]: 2.57 Log | Log reduction of antimicrobial performance of each active ingredient (exhaust 80° C., 60 min, dosage 1% o.w.f (test up to 5% o.w.f)): 2.38 Log | Log reduction of antimicrobial performance of each active ingredient (exhaust 80° C., 60 min, dosage 2% o.w.f): 2.38 Log | Log reduction of antimicrobial performance of each active ingredient (exhaust 80° C., 60 min, dosage 3% o.w.f): 2.41 Log | Log reduction of antimicrobial performance of each active ingredient (exhaust 80° C., 60 min, dosage 4% o.w.f): 2.42 Log | Log reduction of antimicrobial performance of each active ingredient (exhaust 80° C., 60 min, dosage 5% o.w.f): 2.43 Log | Log reduction of antimicrobial performance of each active ingredient (exhaust 80 ° C., solution dosage 1% o.w.f, process time 10 min): 0.78 Log | Log reduction of antimicrobial performance of each active ingredient (exhaust 80 ° C., solution dosage 1% o.w.f, process time 20 min): 1.11 Log | Log reduction of antimicrobial performance of each active ingredient (exhaust 80 ° C., solution dosage 1% o.w.f, process time 30 min): 1.41 Log | Log reduction of antimicrobial performance of each active ingredient (exhaust 80 ° C., solution dosage 1% o.w.f, process time 40 min): 1.84 Log | Log reduction of antimicrobial performance of each active ingredient (exhaust 80 ° C., solution dosage 1% o.w.f, process time 50 min): 2.38 Log | Log reduction of antimicrobial performance of each active ingredient (exhaust 80 ° C., solution dosage 1% o.w.f, process time 60 min): 2.56 Log | Log reduction of antimicrobial performance of each active ingredient (exhaust 80 ° C., solution dosage 1% o.w.f, process time 70 min): 2.58 Log | Log reduction of antimicrobial performance of each active ingredient (exhaust 80 ° C., solution dosage 1% o.w.f, process time 80 min): 2.61 Log | Log reduction of antimicrobial performance of each active ingredient (exhaust 80 ° C., solution dosage 1% o.w.f, process time 90 min): 2.62 Log | Performance Test-Log reduction of antimicrobial performance (curing 120° C.): 0.05 Log | Performance Test-Log reduction of antimicrobial performance (curing 140° C.): 0.17 Log | Performance Test-Log reduction of antimicrobial performance (curing 150° C.): 0.27 Log | Performance Test-Log reduction of antimicrobial performance (curing 160° C.): 0.57 Log
